Reference: patent publication US20220411879A1, “COMPOSITIONS AND METHODS FOR REGULATING EGFR AMPLIFICATION IN CANCER CELLS FOR IMPROVING EFFICACY OF EGFR-TARGETED ANTI-CANCER AGENTS” (Institute for Cancer Research d/b/a The Research Institute …, priority 2019, published 2022)

How the values were obtained:
Format in all cases: cell-based, human
RPE cells [1] = test: Cell proliferation assay with EGF stimulation in RPE cells
Method: Control, KDM4A overexpression or wild type parental RPE cells were plated at a density of 5×10^3 per well in a 6 well tissue culture plate. Each condition was plated in triplicate for each independent experiment. Cells were allowed to adhere for 16 hours before fresh complete media was added containing a final concentration of 50 ng/ml human recombinant EGF (Abcam). For control and KDM4A overexpression RPE cells, cells were harvested after 48 hours of EGF treatment and cell number calculated using a haemocytometer. For combinatorial drug experiments using parental RPE cells, EGF was added for 24 hours, following a 24 hour drug treatment with either KDM5i (1 μM) or EZH2i (3 μM).
Parental RPE cells were plated in 24 well tissue culture plates, in triplicate at a density of 5×10^3. Cells were allowed to adhere for approximately 16 hours before media was supplemented with EZH2 inhibitor (C24) at a final concentration of 3 μM. After an initial 24 hour treatment, human recombinant EGF was supplemented to each well at a final concentration of 50 ng/ml. After 48 hours of EGF treatment, cells were harvested and counted using a haemocytometer.

RPE cells [2] = test: Trypan blue exclusion assay of EGFR inhibitor sensitivity in RPE cells; details: KDM5i (1 μM) and Gefitinib (2.5 μM), 72 hours
Method: Control or stable KDM4A overexpression RPE cells were plated in 24 well tissue culture plates at a density of 5×10^3. […] Cells were stained with trypan blue solution (Sigma Aldrich) to assess cell viability and counted using a haemocytometer. Each condition was plated in triplicate wells and each well was counted in duplicate. An average was taken of all triplicates and used as a representative total.
Control or stable KDM4A overexpression RPE cells were plated in 24 well tissue culture plates at a density of 8×10^3. […] Cells were stained with trypan blue solution (Sigma Aldrich) to assess cell viability and counted using a hemocytometer. Each condition was plated in triplicate wells and each well was counted in duplicate. An average was taken of all triplicates and used as a representative total.
Parental RPE cells are plated in 24 well tissue culture plates, in triplicate at a density of 5×10^3. […] Cells are cultured for a total of 72 hours under drug treatment conditions before being harvested, stained with trypan blue and counted using a haemocytometer.

RPE cells [3] = test: DNA FISH for EGFR DNA copy number in RPE cells
Method: The FISH protocol was performed as described previously in Black et al. (2013). Briefly, cell suspensions were fixed in ice-cold methanol:glacial acetic acid (3:1) solution for a minimum of four hours, before being spun onto 8 Chamber Polystyrene vessel tissue culture treated glass slides (Falcon, Fisher Scientific), using a centrifuge at 900 rpm. The slides were air-dried and incubated in 2×SSC buffer for 2 min, followed by serial ethanol dilution (70%, 85% and 100%) incubations for 2 min each, for a total of 6 min. Air-dried slides were hybridized with probes that were diluted in appropriate buffer overnight at 37° C., following a 4 minute incubation on a heat block at 78° C. The slides were washed the next day for 3 to 4 mins in appropriate wash buffers at 69° C. with 0.4×SSC for Cytocell probes or commercially available Agilent wash buffer 1 followed by washing in 2×SSC with 0.05% Tween-20 (Cytocell probes) or commercially available Agilent wash buffer 2 (Agilent probes). The slides were incubated in 1 mg/mL DAPI solution made in 1% BSA-PBS, followed by a final 1×PBS wash. After the wash, the slides were mounted with ProLong Gold antifade reagent (Invitrogen).
FISH images were acquired using an Olympus IX81 or Olympus IX83 spinning disk microscope at 40× magnification and analyzed using Slidebook 6.0 softwares. A minimum of 25 z-planes with 0.5 um step size was acquired for each field. Copy number gains for EGFR, 7 centromere (7C), 7p telomere (7p22.3), IKZF1 (7p12.2) and 8 centromere (8C) were scored in RPE cells as three or more foci. A minimum of 100 nuclei are scored for each independent experiment.
For hypoxia, EGF and KDM5i combinatorial experiments, RPE cells were pre-treated with 1 nM of KDM4 inhibitor exactly 24 hours prior to hypoxic exposure or EGF treatment. Immediately before transferring cells to hypoxia, or before drug or growth factor treatment, KDM4 inhibitor was supplemented to cells again at a concentration of 1 nM (double spike). Cells were then cultured in the respective conditions for 24 hours prior to harvesting for RNA, protein, cell cycle and DNA FISH analysis.
RPE cells were treated with KDM5 inhibitor (C70) at a final concentration of 1 μM for a total treatment time of 48 hours. […]

KDM4A = test: Immunoblot of KDM4A protein levels in RPE cells; details: EGF 50 ng/ml, 24 hours
Method: Cells were trypsinized and washed two times with PBS before resuspending in RIPA lysis buffer [50 mM Tris pH 7.4, 150 mM NaCl, 0.25% Sodium Deoxycholate, 1% NP40, 1 mM EDTA, 10% Glycerol] freshly supplemented with protease inhibitor and PhosSTOP phosphatase inhibitor cocktails (Roche). Cells were lysed on ice for 15 min and stored at −80° C. until further processing. Lysates were sonicated for 15 min (30 sec ON and 30 sec OFF cycle) at 70% amplitude in QSonica Q700 sonicator (Qsonica) followed by centrifugation at 12,000 rpm for 15 min. Cell lysate was transferred to a fresh tube and protein estimations were performed with Pierce BCA reagent (Thermo Scientific). Equal amounts of proteins were separated by SDS gel electrophoresis and transferred on nitrocellulose membrane (BioTrace NT, Pall Life Sciences) for at least 3 hr at a constant current. The membranes were blocked for at least 1 hr in 5% BSA-PBST (1×PBS with 0.5% Tween-20) or 5% milk-PBST and probed over night with specific antibodies as follows at the following dilutions: anti-GFP (Neuro mAb) (1:100); anti-β-Actin (1:10,000); anti-KDM4A (Neuro mAb) (1:100); anti-Flag (Sigma Aldrich) (1:500); anti-KDMSA (abcam) (1:500); anti-HALO (Promega) (1:1000); anti-Carbonic Anhydrase IX (Abcam) (1:1000). […]

RPE cells [4] = test: Scratch assay (cell migration) in RPE cells; details: KDM4A overexpressing RPE cells vs control, 50 ng/ml EGF, 24 hours
Method: Control or stable KDM4A overexpression RPE cells were plated in 6 well tissue culture plates at a density of 2×10^5. Cells were allowed to adhere to plates for 24 hours. After 24 hours in culture, a p200 pipette tip was used to introduce a scratch wound in the centre of the well from the 12 o'clock to 6 o'clock position. Following the induction of the scratch wound, media was removed from each well and 1 ml of DMEM was used to rinse the wells, removing any cellular debris. After this wash, 3 ml of DMEM supplemented with vehicle or human recombinant EGF (Abcam) to a final concentration of 50 ng/ml, was added to each well. Cells were imaged at 0 hrs, 12 hrs and 24 hrs, using the EVOS imaging platform at 4× magnification. Scratch wound measurements were performed using the EVOS software with a minimum of 5 measurements taken at various locations, per scratch wound. All measurements were averaged. Each condition was performed in triplicate for each independent experiment.

EGFR transcripts = test: qPCR of EGFR transcripts in RPE cells; details: 50 ng/ml EGF, 24 hours
Method: Cells were washed and collected by trypsinization, followed by washing in PBS two times. Cell pellet was resuspended in Qiazol reagent (QIAGEN) and stored at −80° C. before further processing. Total RNA was extracted using miRNAeasy Mini Kit (QIAGEN) with an on-column DNase digestion according to the manufacturer's instructions. RNA was quantified using NanoDrop 2000 (Thermo Scientific). Single strand cDNA was prepared using Super Script IV first strand synthesis kit (Invitrogen) using random hexamers. Expression levels were analyzed using FastStart Universal SYBR Green Master (ROX) (Roche) according to the manufacturer's instructions on a LightCycler 480 PCR machine (Roche). Samples were normalized to β-actin.

Molecule	cell proliferation in response to EGF (RPE cells [1]; RPE cells pre-treated with KDM5i (1 μM) 24 hours, then 50 ng/ml EGF 24 hours, compared to KDM5i alone)	percentage of cells (trypan blue exclusion) on co-treatment with Gefitinib (RPE cells [2])	EGFR copy gains after drug removal (washout) (RPE cells [3]; RPE cells, KDM5i 1 μM, 24 hrs after removal)	EGFR copy gains (RPE cells [3]; RPE cells, KDM5i (C70) 1 μM)	cell proliferation (RPE cells [1]; KDM4A overexpressing RPE cells vs control, 50 ng/ml EGF, 48 hours)	KDM4A protein levels (KDM4A)	cell migration (scratch assay) (RPE cells [4])	EGFR transcripts (qPCR) (EGFR transcripts)	EGFR DNA copy number, EGF in KDM4A overexpressing cells (RPE cells [3]; RPE cells stably overexpressing KDM4A, 50 ng/ml EGF, 24 hours)	EGFR copy number gains (RPE cells [3]; RPE cells, 50 ng/ml EGF, 24 hours)	EGFR DNA copy number, EGF combined with hypoxia (RPE cells [3]; RPE cells, hypoxia 24 hours then 50 ng/ml EGF under hypoxia 24 hours)
CCOC(=O)c1ccnc(CNCC(=O)N(CC)CCN(C)C)c1 [KDM5i, reference compound]	increased cell proliferation with supplemented EGF	reduced the percentage of cells relative to controls and single agent treatment	returned to baseline	promoted EGFR copy gains	–	–	–	–	–	–	–
EGF: human recombinant EGF (Abcam), the preferred ligand of EGFR	–	–	–	–	proliferate faster	does not impact KDM4A levels	migrate faster	increased EGFR transcripts	additive increases in EGFR DNA copy number	significant copy number gains of the EGFR locus	modest but additive increase in EGFR DNA copy number
